Assay results taken from patent US7902225B2, “Mycobacterial inhibitors” (Janssen Pharmaceutica NV, priority 2005, dated 2011).
Counter-ions that a name gives are not always drawn.

Experiments:
M. Smegmatis ATCC607 = experiment: In-vitro anti-bacterial activity against strain M. smegmatis ATCC607 (growth inhibition, Alamar Blue fluorescence); assay type: cell-based; conditions: 48 hours at 37° C.; for IC50: Mycolicibacterium smegmatis, read-out: M. smegmatis (pIC50) (converted)
Description: D.2. In-vitro Method for Testing Compounds for Anti-bacterial Activity Against Strain M. Smegmatis ATCC607. Flat-bottom, sterile 96well plastic microtiter plates were filled with 180 μl of sterile deionized water, supplemented with 0.25% BSA. Subsequently, stock solutions (7.8× final test concentration) of compounds were added in 45 μl volumes to a series of duplicate wells in column 2 so as to allow evaluation of their effects on bacterial growth. Serial five-fold dilutions (45 μl in 180 μl) were made directly in the microtiter plates from column 2 to 11 using a customised robot system (Zymark Corp., Hopkinton, Mass.). Pipette tips were changed after every 3 dilutions to minimize pipetting errors with high hydrophobic compounds. Untreated control samples with (column 1) and without (column 12) inoculum were included in each microtiter plate. Approximately 250 CFU per well of bacteria inoculum, in a volume of 100 μl in 2.8× Mueller-Hinton broth medium, was added to the rows […]. The same volume of broth medium without inoculum was added to column 12 in row A to H. The cultures were incubated at 37° C. for 48 hours in a humidified 5% CO2 atmosphere (incubator with open air valve and continuous ventilation). At the end of incubation, two days after inoculation, the bacterial growth was quantitated fluorometrically. Therefore Alamar Blue (10×) was added to all wells in a volume of 20 μl and plates were incubated for another 2 hours at […] The fluorescence was read in a computer-controlled fluorometer (Cytofluor, Biosearch) at an excitation wavelength of 530 nm and an emission wavelength of 590 nm (gain 30). The % growth inhibition achieved by the compounds was calculated according to standard methods. The pIC50 was defined as the 50% inhibitory concentration for bacterial growth.

[1] = tested on: Mycobacterium tuberculosis (strain H37RV); experiment: In-vitro testing of compounds against M. tuberculosis (growth inhibition, Resazurin fluorescence); assay type: cell-based; conditions: bacterial growth inhibition, 7 days at 37° C.; for IC50: Mycobacterium tuberculosis, 168 h, read-out: M. tuberculosis (pIC50) (converted)

SMILES	melting point [°C]	IC50 (M. Smegmatis ATCC607) [µM]	also measured
CN(C)CCC(O)(c1cc(F)cc(F)c1)c1ccc2nc(-c3cccnc3)cc(-c3ccccc3)c2c1 (stereo not drawn) (as salt: salt) [Compound 8]	151		
CN(C)CCC(O)(c1cccc2ccccc12)c1cc(Br)cc2cc(-c3ccccc3)c(=O)[nH]c12 (stereo not drawn)	190		
CN(C)CCC(O)(c1ccccc1)c1cc(Br)cc2cc(Cc3ccccc3)c(N3CCOCC3)nc12 (stereo not drawn) [Compound 7]	70	1.58	
CN(C)CCC(O)(Cc1c(Cc2ccccc2)c(-c2cccnc2)nc2ccccc12)c1cc(F)cc(F)c1 (stereo not drawn) [Compound 9]	164	6.31	
CN(C)CCOc1nc2c(C(O)(CCN(C)C)c3ccccc3)cc(Br)cc2cc1Cc1ccccc1 (stereo not drawn) [Compound 75]		6.31	IC50 [1]: 5.01 µM
CN(C)CCC(O)(c1cc(F)cc(F)c1)c1cccc2nc(N(C)C)c(-c3ccccc3)cc12 (stereo not drawn) (as salt: salt) [Compound 10]	136		
CN(C)CCC(O)(c1ccccc1)c1cc(Br)cc2cc(Cc3ccccc3)c(N3CCCC3)nc12 (stereo not drawn) [Compound 80]			M. smegmatis (pIC50) (M. Smegmatis ATCC607): 6.1; M. tuberculosis (pIC50) [1]: 5.05
COc1nc2c(C(O)(CCN(C)C)c3ccccc3)cc(-c3cccnc3)cc2cc1Cc1ccccc1 (stereo not drawn) [Compound 14]	180	7.94	
CN(C)CCC(O)(c1ccccc1)c1cc(Br)cc2cc(Cc3ccccc3)c(OCCN3CCCCC3)nc12 (stereo not drawn) [Compound 11]		3.16	IC50 [1]: 3.16 µM
COc1nc2c(C(O)(CCN(C)C)c3ccccc3)cc(Br)cc2cc1Cc1ccccc1 (stereo not drawn) [Compound 3]	66	1.26	
CN(C)CCC(O)(Cc1c(Cc2ccccc2)c(-c2ccco2)nc2ccccc12)c1cc(F)cc(F)c1 (stereo not drawn) [Compound 5]	130	0.398	
CN(C)CCC(O)(Cc1c(Cc2ccccc2)c(N2CCCC2)nc2ccccc12)c1cc(F)cc(F)c1 (stereo not drawn) [Compound 4]		0.251	
CN(C)CCC(O)(c1cccc2ccccc12)c1cc(Br)cc2cc(Cc3ccccc3)c(N(C)C)nc12 (stereo not drawn) [Compound 57]			M. smegmatis (pIC50) (M. Smegmatis ATCC607): 5.8
CN(C)CCC(O)(c1cc(F)cc(F)c1)c1cc(Br)cc2cc(-c3ccccc3)c(-n3ccnc3)nc12 (stereo not drawn) [Compound 44]		1.26	
CN(C)CCC(O)(c1ccccc1)c1cc(Br)cc2cc(Cc3ccccc3)c(N3CCN(C(=O)c4ccco4)CC3)nc12 (stereo not drawn) [Compound 86]			M. smegmatis (pIC50) (M. Smegmatis ATCC607): 5.7
CN(C)CCC(O)(c1ccccc1)c1cc(Br)cc2cc(Cc3ccccc3)c(N3CCC(Cc4ccccc4)CC3)nc12 (stereo not drawn) [Compound 84]		2	
CN(C)CCC(O)(c1ccccc1)c1cc(Br)cc2cc(Cc3ccccc3)c(N3CCN(c4ncccn4)CC3)nc12 (stereo not drawn) [Compound 89]		2.51	
CN(C)CCC(O)(c1cc(F)cc(F)c1)c1cccc2nc(N3CCN(C)CC3)c(-c3ccccc3)cc12 (stereo not drawn) [Compound 32]		10	
COc1nc2c(C(O)(CCN(C)C)c3cc(F)cc(F)c3)cc(-c3cccnc3)cc2cc1-c1ccccc1 (stereo not drawn) (as salt: salt) [Compound 13]	156		
COc1nc2c(C(O)(CCN(C)C)c3cccs3)cc(-c3cccnc3)cc2cc1Cc1ccccc1 (stereo not drawn) [Compound 77]		12.6	
COc1nc2c(C(O)(CCN(C)C)c3cccs3)cc(C)cc2cc1Cc1ccccc1 (stereo not drawn) [Compound 16]		1.58	
CN(C)CCC(O)(c1ccccc1)c1cc(Br)cc2cc(Cc3ccccc3)c(-n3ccnn3)nc12 (stereo not drawn) [Compound 65]			M. smegmatis (pIC50) (M. Smegmatis ATCC607): 5.2
CN(C)CCC(O)(c1cc(F)cc(F)c1)c1cccc2nc(-n3cncn3)c(-c3ccccc3)cc12 (stereo not drawn) [Compound 33]		31.6	
CN(C)CCC(O)(c1ccccc1)c1cc(Br)cc2cc(Cc3ccccc3)c(N3CCN(Cc4ccccc4)CC3)nc12 (stereo not drawn) [Compound 79]			M. smegmatis (pIC50) (M. Smegmatis ATCC607): 6.2; M. tuberculosis (pIC50) [1]: 4.6
